# From patent US7772252B2, “Heterocyclic substituted carbonyl derivatives and their use as dopamine D3 receptor ligands” (Aventis Pharmaceuticals Inc., priority 2001, dated 2010)
# Target: T1, cloned human dopamine D3 receptors (Homo sapiens, UniProt P35462)
# T1 construct: expressed in transfected cells; membrane homogenate
# Assay: [N-Methyl-3H]Spiroperidol binding to cloned human dopamine D3 receptors
# Settings: read-out: D3 Ki
# Procedure, shortened: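 Radioligand displacement with [N-methyl-3H]spiroperidol was run on membranes from a high-expressing CHO clone carrying human D3. Membranes were prepared in 10% DMSO and stored at −80° C.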
# T1 sequence (P35462 whole entry): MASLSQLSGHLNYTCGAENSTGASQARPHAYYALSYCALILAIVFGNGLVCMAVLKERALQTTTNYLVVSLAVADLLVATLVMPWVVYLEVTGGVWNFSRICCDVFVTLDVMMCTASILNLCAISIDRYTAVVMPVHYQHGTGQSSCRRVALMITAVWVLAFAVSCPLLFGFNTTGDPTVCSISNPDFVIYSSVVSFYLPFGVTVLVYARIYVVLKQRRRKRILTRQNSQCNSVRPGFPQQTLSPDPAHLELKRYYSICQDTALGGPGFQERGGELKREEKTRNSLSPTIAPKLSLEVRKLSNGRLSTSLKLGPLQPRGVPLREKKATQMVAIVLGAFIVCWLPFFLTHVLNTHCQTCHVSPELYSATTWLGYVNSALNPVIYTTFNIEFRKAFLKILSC
row,Structure (SMILES),Ki [nM]
1,CCOC(=O)c1cc2ccc(N3CCCN(CC4CC4C(=O)NC4CCC(CC)CC4)CC3)cc2s1 (racemic) [compound 830128],69.7
2,CN(C)Cc1ccc(CSCCNC(=O)C2CC2CN2CCC(c3noc4ccsc34)CC2)o1 (racemic) [compound 831740],2.96
3,COc1cccc2c(C3CCN(C[C@@H]4C[C@H]4C(=O)NC4CC5CCC4(C)C5(C)C)CC3)nn(C)c12 (some centres unmarked) [compound 834055],62
4,O=C(NCCc1c[nH]c2ccccc12)[C@@H]1C[C@H]1CN1CCN(c2csc3cc(C(F)(F)F)ccc23)CC1 [compound 831271],6.57
5,COc1ccc2c(c1)c(N1CCN(C[C@@H]3C[C@H]3C(=O)NC3CCN(CC4CCCCC4)CC3)CC1)nn2C [compound 832743],2.36
6,O=C(NC1CCN(Cc2cccc(Cl)c2)CC1)[C@@H]1C[C@H]1CN1CCC(c2noc3ccsc23)CC1 [compound 832728],3.12
7,O=C(C1CC1CN1CCC(c2noc3ccsc23)CC1)N1CCN(S(=O)(=O)C=Cc2ccccc2)CC1 (racemic) [compound 831838],141
8,O=C(NCCCn1ccnc1)[C@@H]1C[C@H]1CN1CCN(c2csc3cc(Cl)ccc23)CC1 [compound 834172],0.837
9,Cn1nc(N2CCN(C[C@@H]3C[C@H]3C(=O)NCCCn3cnc4ccccc43)CC2)c2sccc21 [A002202403],86.8
10,O=C([C@@H]1C[C@H]1CN1CCC(c2nsc3cc(Br)ccc23)CC1)N1CCCC(Cn2ccnc2)C1 (mixture of isomers) [A002329099],2.06
11,CN1CCN(CCCNC(=O)[C@@H]2C[C@H]2CN2CCN(c3nn(-c4ccc(OC(F)(F)F)cc4)c4ccsc34)CC2)CC1 [A002287758],139
12,O=C([C@@H]1C[C@H]1CN1CCC(c2noc3ccsc23)CC1)N1CCN(Cc2ccc(Cl)cc2)CC1 [compound 833128],26.7
13,O=C(N[C@H]1CC[C@H](O)CC1)[C@@H]1C[C@H]1CN1CCN(c2nn(-c3ccc(F)cc3)c3ccsc23)CC1 [compound 832566],1.76
14,C[C@H]1CC[C@H](NC(=O)[C@@H]2C[C@H]2CN2CCN(c3nn(-c4ccc(F)cc4)c4ccccc34)CC2)CC1 [compound 833701],1.28
15,CC(C)(C)OC(=O)N1CCC(CNC(=O)[C@@H]2C[C@H]2CN2CCC(c3nn(CC(F)(F)F)c4ccsc34)CC2)CC1 [A002439266],66
16,Cn1nc(C2CCN(C[C@@H]3C[C@H]3C(=O)N3CCC[C@@H](Cn4ccnc4)C3)CC2)c2sccc21 [A002437352],1.22
17,C[C@H]1CC[C@H](NC(=O)[C@@H]2C[C@H]2CN2CCC(c3nn(-c4ccc(F)cc4)c4cc(C(F)(F)F)ccc34)CC2)CC1 [compound 833698],134
18,O=C(NCCc1ccccc1)[C@@H]1C[C@H]1CN1CCC(c2noc3ccsc23)CC1 [compound 830829],5.3
19,O=C(NC1CCN(C(=O)c2ccc(Cl)c(Cl)c2)CC1)C1CC1CN1CCC(c2noc3ccsc23)CC1 (racemic) [compound 832464],12.8
20,CC1CCC(N2CC(CN3CCN(c4csc5cc(C(F)(F)F)ccc45)CC3)CC2=O)CC1 (racemic) [833953A],88.8
21,CC1CCC(NC(=O)C2CCC2CN2CCC(c3noc4ccsc34)CC2)CC1 (racemic) [compound 829830],65.3
22,COc1ccc2c(c1)c(N1CCN(C[C@@H]3C[C@H]3C(=O)NC3CCN(Cc4ccc(F)cc4)CC3)CC1)nn2C [compound 833835],0.499

row,Structure (SMILES),Ki [nM]
1,O=C([C@@H]1C[C@H]1CN1CCN(c2csc3cc(C(F)(F)F)ccc23)CC1)N1CCC[C@@H](Cn2ccnc2)C1 [compound 833097],0.9
2,CC(C)(C)OC(=O)N1CCC(CNC(=O)[C@@H]2C[C@H]2CN2CCC(c3noc4ccsc34)CC2)CC1 [compound 833375],24.2
3,CC(C)(C)OC(=O)N1CC[C@@H](CNC(=O)[C@@H]2C[C@H]2CN2CCC(c3noc4ccsc34)CC2)C1 [compound 833373],65.5
4,"O=C([C@@H]1C[C@H]1CN1CCC(c2csc3cc(C(F)(F)F)ccc23)CC1)N1CCC[C@@H](Cn2ccnc2)C1 [A002609935, (3S-Imidazol-1-ylmethyl-piperidin-1-yl)-{2R-[4-(6-trifluoromethyl-benzo[b]thiophen-3-yl)-piperidin-1-ylmethyl]-1R-cyclopropyl}-methanone]",0.142
5,CC1CCN(CCCNC(=O)[C@@H]2C[C@H]2CN2CCN(c3nn(-c4ccc(OC(F)(F)F)cc4)c4ccsc34)CC2)CC1 [compound 834207],71.4
6,Cc1cn(CCCNC(=O)[C@@H]2C[C@H]2CN2CCC(c3noc4ccsc34)CC2)cn1 [compound 831937],35
7,O=C(NCCCn1ccnc1)[C@@H]1C[C@H]1CN1CCN(c2nn(-c3ccccc3)c3ccsc23)CC1 [compound 832592],7.29
8,CC1CCC(NC(=O)C2CC2CN2CCN(c3nn(-c4ccccc4F)c4ccccc34)CC2)CC1 (racemic) [compound 830114],5.42
9,COc1cccc2c(C3CCN(C[C@@H]4C[C@H]4C(=O)NC4CC5CCC(C4)N5C)CC3)nn(C)c12 (some centres unmarked) [A002328939],201
10,O=C([C@@H]1C[C@H]1CN1CCC(c2noc3ccsc23)CC1)N1CCC(n2c(=O)[nH]c3ccccc32)CC1 [compound 832531],67.7
11,COc1ccc2c(c1)c(N1CCN(C[C@@H]3C[C@H]3C(=O)NCC3CCN(C(C)=O)CC3)CC1)nn2C [compound 833197],45.4
12,O=C(NCCc1cccnc1)C1CC1CN1CCC(c2noc3ccsc23)CC1 (racemic) [compound 831456],6.21
13,O=C(NC1CCN(C(=O)Nc2ccc(F)cc2)CC1)C1CC1CN1CCC(c2noc3ccsc23)CC1 (racemic) [832576ES],17.5
14,C[C@H]1CC[C@H](NC(=O)[C@@H]2CC[C@H]2CN2CCN(c3noc4ccsc34)CC2)CC1 (racemic) [compound 829996],277
15,O=C([C@@H]1C[C@H]1CN1CCN(c2nc3cccc4c3n2CCC4)CC1)N1CCC(Cn2ccnc2)CC1 [A002437351],32.7
16,C[C@H]1CC[C@H](NC(=O)[C@@H]2C[C@H]2CN2CCN(c3nn(-c4ccc(C(F)(F)F)cc4)c4ccsc34)CC2)CC1 [compound 832881],37.9
17,CN1CCN(CCCNC(=O)C2CC2CN2CCC(c3noc4ccsc34)CC2)CC1 (racemic) [compound 831741],125
18,Cc1ccc2c(c1)c(C1CCN(C[C@@H]3C[C@H]3C(=O)N[C@H]3CC[C@H](C)CC3)CC1)nn2C [compound 834059],2.76
19,O=C([C@@H]1C[C@H]1CN1CCC(c2noc3ccc(C(F)(F)F)cc23)CC1)N1CCCC(Cn2ccnc2)C1 (mixture of isomers) [A002200835],0.4
20,O=C(NCCCn1cnc2ccccc21)[C@@H]1C[C@H]1CN1CCN(c2nn(-c3ccc(OC(F)(F)F)cc3)c3ccsc23)CC1 [A002243385],661
21,CCC1CCC(NC(=O)C2CC2CN2CCC(c3cc4cc(OC)cc(Br)c4o3)CC2)CC1 (racemic) [compound 830112],54
22,O=C(NCCCn1ccnc1)[C@@H]1C[C@H]1CN1CCN(c2n[nH]c3ccsc23)CC1 [compound 831315],29.3

row,Structure (SMILES),Ki [nM]
1,Cc1cc(C)c(CN2CCN(C(=O)C3CC3CN3CCC(c4noc5ccsc45)CC3)CC2)c(C)c1 (racemic) [compound 832194],23
2,COc1ccccc1CCNC(=O)C1CC1CN1CCC(c2noc3ccsc23)CC1 (racemic) [compound 831805],10.2
3,Cn1nc(N2CCN(C[C@@H]3C[C@H]3C(=O)N3CCC(n4ccnc4)CC3)CC2)c2sccc21 [compound 832207],54.8
4,O=C(C1CC1CN1CCC(c2noc3ccsc23)CC1)N1CCN(Cc2ccc(F)cc2)CC1 (racemic) [compound 832164],6.6
5,O=C([C@@H]1C[C@H]1CN1CCN(c2csc3cc(C(F)(F)F)ccc23)CC1)N1CCC(CCN2CCCC2)CC1 [compound 833514],0.36
6,O=C(NC1CCN(Cc2ccc(F)cc2)CC1)[C@@H]1C[C@H]1CN1CCC(c2noc3ccsc23)CC1 [compound 832732],0.74
7,NCCN1CCN(C(=O)[C@@H]2C[C@H]2CN2CCN(c3csc4cc(C(F)(F)F)ccc34)CC2)CC1 [compound 833323],3.46
8,COc1c(F)ccc2c(C3CCN(C[C@@H]4C[C@H]4C(=O)NCCCn4ccnc4)CC3)noc12 [compound 831309],40.6
9,O=C(NCCc1cccc(F)c1)C1CC1CN1CCC(c2noc3ccsc23)CC1 (racemic) [compound 831801],11.2
10,COc1ccc2c(c1)c(N1CCN(C[C@@H]3C[C@H]3C(=O)N(C)C3CCN(C)CC3)CC1)nn2C [compound 832745],15
11,O=C(N[C@H]1CC[C@H](O)CC1)[C@@H]1C[C@H]1CN1CCC(c2noc3ccsc23)CC1 [compound 830251],11.4
12,O=C(NC1CCN(Cc2ccc(Cl)cc2)CC1)[C@@H]1C[C@H]1CN1CCN(c2csc3cc(C(F)(F)F)ccc23)CC1 [compound 832737],5.42
13,Cc1cn(CCCNC(=O)[C@@H]2C[C@H]2CN2CCC(c3noc4ccsc34)CC2)c(C)n1 [compound 831938],33
14,O=C([C@@H]1C[C@H]1CN1CCN(c2csc3cc(C(F)(F)F)ccc23)CC1)N1CCC(N2CCCC2)CC1 [compound 832510],25
15,Cn1nc(N2CCN(C[C@@H]3C[C@H]3C(=O)NC3CCN(Cc4cc(F)ccc4F)CC3)CC2)c2sccc21 [A002436429],4.16
16,CN1CCN(CCCNC(=O)[C@@H]2C[C@H]2CN2CCN(c3csc4cc(C(F)(F)F)ccc34)CC2)CC1 [compound 832579],6.29
17,O=C(NC1CCN(Cc2ccccc2)CC1)C1CC1CN1CCC(c2noc3ccsc23)CC1 (racemic) [compound 831457],1.83
18,CCC1CCC(NC(=O)C2CC2CN2CCN(c3ccc(OC)cc3)CC2C)CC1 (racemic) [compound 827231],60.6
19,CC(=O)N1CCCCC1CCNC(=O)[C@@H]1C[C@H]1CN1CCN(c2csc3cc(C(F)(F)F)ccc23)CC1 (mixture of isomers) [compound 833064],28.8
20,O=C(NCC1CCNCC1)[C@@H]1C[C@H]1CN1CCC(c2nn(CC(F)(F)F)c3ccsc23)CC1 [A002440435A],305

# Same assay, conditions: read-out: d3Ki
row,Structure (SMILES),Ki [nM]
1,CC[C@H]1CC[C@H](NC(=O)CCCN2CCN(c3csc4cc(C(F)(F)F)ccc34)CC2)CC1 [compound 826806],40
